According to patent publication US8198330B2, “Therapeutic or prophylactic agent for diabetes, obesity, dyslipidemia or metabolic syndrome comprising benzylamine derivative or pharmaceutically acceptable acid addition salt thereof” (Toray Industries, Inc., priority 2008, dated 2012):

Test system: DIO mice
Experiment: Insulin tolerance test (ITT) in DIO mice
Assay type: in vivo, mouse
Details: day 27, insulin 0.3 unit/kg i.p., FIG. 1
Method: The blood was collected (approximately 70 μL) from the same site by using a heparin-treated capillary (Hematokrit Kapilaren, 75 μL, […] LABORGERATE) and the collected blood was centrifuged (12,000 rpm, 7 min, 4° C.) in a hematocrit centrifuge (KUBOTA3100, Kubota Corp.) and the plasma was stored, as it is frozen in an Eppendorf tube, until it is used for measurement of triglyceride. The triglyceride measurement was carried out by using Triglyceride E-Test Wako (Wako Pure Chemical Industries). Four μL of the sample was added to 250 μL of the coloring liquid, after reaction at 37° C. for 1 hour, and the absorbance (595 nm) of the mixture was determined by using a microplate reader (Bio-Rad, Model 680). Separately, insulin tolerance test (ITT) was performed on day 27.
The mouse was left non-feeded in a fasting cage after drug administration on day 26. In the morning of the day of ITT (day 27), the fasting blood sugar was determined by a method identical with that used for blood sugar measurement on day 26. The blood sugar was measured once again in the afternoon of the same day; an insulin solution was administered intraperitoneally (0.3 unit/5 mL/kg) immediately after then; and the blood sugar was measured 30, 60, 120 and 180 minutes after insulin administration since then. […]
The insulin level was measured by using an insulin measurement kit (Lebis Insulin Mouse U, Shibayagi). […]

SMILES: COc1cc(CN[C@@H](C)[C@H](O)c2ccc(O)c(NS(C)(=O)=O)c2)cc(OC)c1 [Example 1, N-(5-((1R,2S)-2-(3,5-Dimethoxybenzylamino)-1-hydroxypropyl)-2-hydroxyphenyl)methanesulfonamide]
- blood sugar after insulin administration (ITT) versus vehicle group: declined statistically significantly
